Experimental data from ChEMBL document CHEMBL4251666, “Quest for Efficacious Next-Generation Taxoid Anticancer Agents and Their Tumor-Targeted Delivery” (J Nat Prod, 2018).

Columns and labels:
HCT-116 = experiment: Cytotoxicity against CD133 positive human HCT116 cells; format: functional, cell-based
[1] = Cytotoxicity against human CD133/CD44 positive PC3MM2 cells assessed as cell death at 0.01 to 10 uM after 72 hrs by MTT assay; format: functional
[2] = Cytotoxicity against human CD133/CD44 positive PPT2 cells assessed as cell death at 0.01 to 10 uM after 72 hrs by MTT assay; format: functional
MCF7 [3] = experiment: Cytotoxicity against human MCF7 cells; format: functional, cell-based
A121 = experiment: Cytotoxicity against human A121 cells; format: functional, cell-based
A549 = experiment: Cytotoxicity against human A549 cells; format: functional, cell-based
MCF7 [4] = experiment: Cytotoxicity against human paclitaxel-resistant MCF7 cells after 72 hrs by MTT assay; format: functional, cell-based; conditions: MCF7, 72 h
[5] = Cytotoxicity against human MDA435/LCC6 cells; format: functional, cell-based; conditions: MDA-435/LCC6

SMILES	IC50 (HCT-116) [nM]	IC50 (MCF7 [4]) [nM]	further results
CN(Cc1cnc2nc(N)nc(N)c2n1)c1ccc(C(=O)N[C@@H](CCC(=O)O)C(=O)O)cc1 [METHOTREXATE]	32.7	–	–
CO[C@]12C=C[C@](C)(O1)[C@@H](OC(=O)/C=C/c1cn(C)cn1)C[C@H]1C(C)=CC[C@H](C(C)C)[C@H]1/C=C\2CO[C@@H]1OC[C@@H](O)[C@@H](O)[C@@H]1OC(C)=O [ELEUTHEROBIN]	–	–	Activity [1]: 60%; Activity [2]: 60%
CC(=O)O[C@@]12CO[C@@H]1C[C@H](O)[C@@]1(C)C(=O)[C@H](OC(=O)N(C)C)C3=C(C)[C@@H](OC(=O)[C@H](O)[C@H](C=C(C)C)NC(=O)OC(C)(C)C)C[C@@](O)([C@@H](OC(=O)c4ccccc4)[C@H]21)C3(C)C	0.83	–	–
CC(=O)O[C@H]1C(=O)[C@@]2(C)[C@H]([C@H](OC(=O)C=C(C)C)[C@]3(O)C[C@H](OC(=O)[C@H](O)[C@H](C=C(C)C)NC(=O)OC(C)(C)C)C(C)=C1C3(C)C)[C@]1(OC(C)=O)CO[C@@H]1C[C@@H]2O	–	–	IC50 (MCF7 [3]): 0.9 nM; IC50 (A121): 0.9 nM; IC50 (A549): 0.9 nM
CC[C@@]1(O)C(=O)OCc2c1cc1n(c2=O)Cc2cc3c(CN(C)C)c(O)ccc3nc2-1 [TOPOTECAN]	451	–	–
CC(=O)O[C@@]12CO[C@@H]1C[C@H](O)[C@@]1(C)C(=O)[C@H](OC(=O)N(C)C)C3=C(C)[C@@H](OC(=O)[C@H](O)[C@H](C=C(C)C)NC(=O)OC(C)(C)C)C[C@@](O)([C@@H](OC(=O)c4cccc(OC(F)(F)F)c4)[C@H]21)C3(C)C	–	31.4	–
CC(=O)O[C@@]12CO[C@@H]1C[C@H](O)[C@@]1(C)C(=O)[C@H](OC(=O)N(C)C)C3=C(C)[C@@H](OC(=O)[C@H](O)[C@H](C=C(F)F)NC(=O)OC(C)(C)C)C[C@@](O)([C@@H](OC(=O)c4ccccc4)[C@H]21)C3(C)C	0.14	–	–
CC(=O)O[C@@]12CO[C@@H]1C[C@H](O)[C@@]1(C)C(=O)[C@H](OC(=O)C3CC3)C3=C(C)[C@@H](OC(=O)[C@H](O)[C@H](C=C(C)C)NC(=O)OC(C)(C)C)C[C@@](O)([C@@H](OC(=O)c4cccc(OC(F)(F)F)c4)[C@H]21)C3(C)C	–	34.9	–
CCC(=O)O[C@H]1C(=O)[C@@]2(C)[C@H]([C@H](OC(=O)c3cccc(OC)c3)[C@]3(O)C[C@H](OC(=O)[C@H](O)[C@H](C=C(C)C)NC(=O)OC(C)(C)C)C(C)=C1C3(C)C)[C@]1(OC(C)=O)CO[C@@H]1C[C@@H]2O	–	21.7	–
CC(=O)O[C@H]1C(=O)[C@@]2(C)[C@H]([C@H](OC(=O)c3ccccc3)[C@]3(O)C[C@H](OC(=O)[C@H](O)[C@@H](NC(=O)c4ccccc4)c4ccccc4)C(C)=C1C3(C)C)[C@]1(OC(C)=O)CO[C@@H]1C[C@@H]2O [PACLITAXEL]	33.8	–	–
COc1cccc2c1C(=O)c1c(O)c3c(c(O)c1C2=O)C[C@@](O)(C(=O)CO)C[C@@H]3O[C@H]1C[C@H](N)[C@H](O)[C@H](C)O1 [DOXORUBICIN]	78	–	–
CC(=O)O[C@H]1C(=O)[C@@]2(C)[C@H]([C@H](OC(=O)c3cccc(OC(F)(F)F)c3)[C@]3(O)C[C@H](OC(=O)[C@H](O)[C@H](C=C(C)C)NC(=O)OC(C)(C)C)C(C)=C1C3(C)C)[C@]1(OC(C)=O)CO[C@@H]1C[C@@H]2O	–	19	–
CC(=O)O[C@@]12CO[C@@H]1C[C@H](O)[C@@]1(C)C(=O)[C@H](OC(=O)N(C)C)C3=C(C)[C@@H](OC(=O)[C@H](O)[C@H](C=C(C)C)NC(=O)OC(C)(C)C)C[C@@](O)([C@@H](OC(=O)c4cccc(C)c4)[C@H]21)C3(C)C	0.24	–	–
CC(=O)O[C@@]12CO[C@@H]1C[C@H](O)[C@@]1(C)C(=O)[C@H](OC(=O)C3CC3)C3=C(C)[C@@H](OC(=O)[C@H](O)[C@H](C=C(C)C)NC(=O)OC(C)(C)C)C[C@@](O)([C@@H](OC(=O)c4ccccc4)[C@H]21)C3(C)C	0.28	80.5	–
CC(=O)O[C@H]1C(=O)[C@@]2(C)[C@H]([C@H](OC(=O)c3ccccc3)[C@]34OC(=O)O[C@H]3[C@H](OC(=O)[C@H](O)[C@H](C=C(C)C)NC(=O)OC(C)(C)C)C(C)=C1C4(C)C)[C@]1(OC(C)=O)CO[C@@H]1C[C@@H]2O	–	66.7	–
CC(=O)O[C@H]1C(=O)[C@@]2(C)[C@H]([C@@H]3OC(=O)c4ccccc4OC/C=C/CC[C@H](NC(=O)OC(C)(C)C)[C@@H](O)C(=O)O[C@H]4C[C@]3(O)C(C)(C)C1=C4C)[C@]1(OC(C)=O)CO[C@@H]1C[C@@H]2O	–	–	IC50 [5]: 390 nM
